{
  "source": "patent US8609610B2",
  "about": "“Inhibitors of the trypsin-like site of the proteasome and methods of use thereof” (Trustees of Dartmouth College, priority 2011, dated 2013)",
  "assay_in_all_cases": "PROTEASOMEGLO assay of proteasome inhibition in MM cells",
  "format_in_all_cases": "cell-based",
  "key": {"[1]": {"target": "T1, caspase-like sites (β1) of proteasome in MM cells (Homo sapiens, UniProt P28072+Q99436)", "T1 sequence (P28072 35-239)": "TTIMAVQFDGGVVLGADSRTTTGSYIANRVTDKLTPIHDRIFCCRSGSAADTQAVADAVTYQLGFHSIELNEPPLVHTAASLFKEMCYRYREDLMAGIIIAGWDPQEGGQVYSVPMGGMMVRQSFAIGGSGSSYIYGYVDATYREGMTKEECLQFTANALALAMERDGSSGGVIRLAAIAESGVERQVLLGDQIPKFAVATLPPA", "T1 sequence (Q99436 44-277)": "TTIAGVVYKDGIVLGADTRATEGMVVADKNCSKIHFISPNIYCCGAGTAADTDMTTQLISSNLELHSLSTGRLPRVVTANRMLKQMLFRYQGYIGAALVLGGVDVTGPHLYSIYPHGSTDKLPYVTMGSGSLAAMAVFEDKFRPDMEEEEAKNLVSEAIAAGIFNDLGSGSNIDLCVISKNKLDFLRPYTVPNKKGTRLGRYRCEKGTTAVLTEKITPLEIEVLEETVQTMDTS"}, "[2]": {"target": "T2, trypsin-like sites (β2) of proteasome in MM cells (Homo sapiens, UniProt Q99436)", "T2 construct": "endogenous in cells; host or cells: NCI-H929, RPMI-8226 and other MM cell lines", "T2 sequence (Q99436 44-277)": "T1 sequence (Q99436 44-277)", "procedure": "(§1) Proteasome inhibition in MM cells was measured with luminogenic substrates using PROTEASOMEGLO assay (Promega). […] An aliquot of culture was pelleted and medium was removed and replaced with PBS. The resulting cell suspension was mixed with luminogenic substrates in the manufacturer-provided lysis/assay buffer. After 3 minutes mixing on an orbital shaker, the plate was incubated in the dark for additional 17 minutes, followed by the measurements of the luminescence, performed in triplicate for each substrate/data point. Data were analyzed as for purified proteasomes. […] Cells (1×10^6 per well of a 6-well plate) were incubated with the inhibitors for 4 hours at 37° C. and this was followed by a 2 hour incubation with 5 μM BODIPY-TMR-epoxomicin. Subsequently, the medium was removed and the cells were washed with PBS and harvested. […] The supernatant was collected and the protein concentration was determined by the Bradford assay, and used to normalize gel loading. The samples were analysed by SDS-PAGE and fluorescent densitometry as described for competition experiment in cell lysates. IC50 values were calculated from three independent experiments using […] PRISM software."}, "[3]": {"target": "T3, chymotrypsin-like sites (β5) of proteasome in MM cells (Homo sapiens, UniProt P28074)", "T3 sequence (P28074 60-263)": "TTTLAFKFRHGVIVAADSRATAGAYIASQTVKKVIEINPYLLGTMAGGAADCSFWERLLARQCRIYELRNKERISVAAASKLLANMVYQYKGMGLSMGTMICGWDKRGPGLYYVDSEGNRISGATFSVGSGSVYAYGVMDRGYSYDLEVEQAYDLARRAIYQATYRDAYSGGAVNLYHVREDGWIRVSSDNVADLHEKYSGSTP", "procedure": "as §1"}},
  "data": [
    {"smiles": "CC(C)C[C@H](NC(=O)[C@H](Cc1c(F)c(F)c(F)c(F)c1F)NC(=O)[C@H](Cc1ccccc1)NC(=O)[C@H](Cc1ccccc1)N=[N+]=[N-])C(=O)[C@@]1(C)CO1", "note": "[LU-005]", "values": [
      {"measurement": "Inhibition of active sites β1", "setting": "[1]; KMS-12-BM, LU-005 0.037 μM 1 h", "result": "−1 ± 5", "unit": "% control"},
      {"measurement": "Inhibition of active sites β1", "setting": "[1]; KMS-12-BM, LU-005 0.33 μM 1 h", "result": "6 ± 12", "unit": "% control"},
      {"measurement": "Inhibition of active sites β1", "setting": "[1]; KMS-12-BM, LU-005 1.0 μM 1 h", "result": "11 ± 16", "unit": "% control"},
      {"measurement": "Inhibition of active sites β1", "setting": "[1]; KMS-18, LU-005 0.037 μM 1 h", "result": "0 ± 8", "unit": "% control"},
      {"measurement": "Inhibition of active sites β1", "setting": "[1]; KMS-18, LU-005 0.33 μM 1 h", "result": "29 ± 7", "unit": "% control"},
      {"measurement": "Inhibition of active sites β1", "setting": "[1]; KMS-18, LU-005 1.0 μM 1 h", "result": "32 ± 4", "unit": "% control"},
      {"measurement": "Inhibition of active sites β1", "setting": "[1]; KMS-18, LU-005 3.0 μM 1 h", "result": "39 ± 12", "unit": "% control"},
      {"measurement": "Inhibition of active sites β1", "setting": "[1]; KMS-18, LU-005 9.0 μM 1 h", "result": "42 ± 2", "unit": "% control"},
      {"measurement": "Inhibition of active sites β1", "setting": "[1]; MM1.R, LU-005 0.004 μM 1 h", "result": "6 ± 8", "unit": "% control"},
      {"measurement": "Inhibition of active sites β1", "setting": "[1]; NCI-H929, LU-005 0.0014 μM 1 h", "result": "−14 ± 15", "unit": "% control"},
      {"measurement": "Inhibition of active sites β1", "setting": "[1]; NCI-H929, LU-005 0.004 μM 1 h", "result": "−7 ± 10", "unit": "% control"},
      {"measurement": "Inhibition of active sites β1", "setting": "[1]; RPMI-8226, LU-005 0.037 μM 1 h", "result": "16 ± 7", "unit": "% control"},
      {"measurement": "Inhibition of active sites β1", "setting": "[1]; RPMI-8226, LU-005 0.33 μM 1 h", "result": "37 ± 15", "unit": "% control"},
      {"measurement": "Inhibition of active sites β1", "setting": "[1]; RPMI-8226, LU-005 1.0 μM 1 h", "result": "37 ± 4", "unit": "% control"},
      {"measurement": "Inhibition of active sites β2", "setting": "[2]; KMS-12-BM, LU-005 0.037 μM 1 h", "result": "−12 ± 1", "unit": "% control"},
      {"measurement": "Inhibition of active sites β2", "setting": "[2]; KMS-12-BM, LU-005 0.33 μM 1 h", "result": "3 ± 18", "unit": "% control"},
      {"measurement": "Inhibition of active sites β2", "setting": "[2]; KMS-12-BM, LU-005 1.0 μM 1 h", "result": "29 ± 7", "unit": "% control"},
      {"measurement": "Inhibition of active sites β2", "setting": "[2]; KMS-18, LU-005 0.037 μM 1 h", "result": "−13 ± 13", "unit": "% control"},
      {"measurement": "Inhibition of active sites β2", "setting": "[2]; KMS-18, LU-005 0.33 μM 1 h", "result": "24 ± 6", "unit": "% control"},
      {"measurement": "Inhibition of active sites β2", "setting": "[2]; KMS-18, LU-005 1.0 μM 1 h", "result": "38 ± 5", "unit": "% control"},
      {"measurement": "Inhibition of active sites β2", "setting": "[2]; KMS-18, LU-005 3.0 μM 1 h", "result": "50 ± 14", "unit": "% control"},
      {"measurement": "Inhibition of active sites β2", "setting": "[2]; KMS-18, LU-005 9.0 μM 1 h", "result": "62 ± 5", "unit": "% control"},
      {"measurement": "Inhibition of active sites β2", "setting": "[2]; MM1.R, LU-005 0.004 μM 1 h", "result": "6.5 ± 0.5", "unit": "% control"},
      {"measurement": "Inhibition of active sites β2", "setting": "[2]; NCI-H929, LU-005 0.0014 μM 1 h", "result": "−9 ± 2", "unit": "% control"},
      {"measurement": "Inhibition of active sites β2", "setting": "[2]; NCI-H929, LU-005 0.004 μM 1 h", "result": "−13 ± 7", "unit": "% control"},
      {"measurement": "Inhibition of active sites β2", "setting": "[2]; RPMI-8226, LU-005 0.037 μM 1 h", "result": "1 ± 17", "unit": "% control"},
      {"measurement": "Inhibition of active sites β2", "setting": "[2]; RPMI-8226, LU-005 0.33 μM 1 h", "result": "13 ± 11", "unit": "% control"},
      {"measurement": "Inhibition of active sites β2", "setting": "[2]; RPMI-8226, LU-005 1.0 μM 1 h", "result": "22 ± 19", "unit": "% control"},
      {"measurement": "Inhibition of active sites β5", "setting": "[3]; KMS-12-BM, LU-005 0.037 μM 1 h", "result": "48 ± 9", "unit": "% control"},
      {"measurement": "Inhibition of active sites β5", "setting": "[3]; KMS-12-BM, LU-005 0.33 μM 1 h", "result": "81 ± 3", "unit": "% control"},
      {"measurement": "Inhibition of active sites β5", "setting": "[3]; KMS-12-BM, LU-005 1.0 μM 1 h", "result": "95 ± 2", "unit": "% control"},
      {"measurement": "Inhibition of active sites β5", "setting": "[3]; KMS-18, LU-005 0.037 μM 1 h", "result": 14, "unit": "% control"},
      {"measurement": "Inhibition of active sites β5", "setting": "[3]; KMS-18, LU-005 0.33 μM 1 h", "result": "69 ± 8", "unit": "% control"},
      {"measurement": "Inhibition of active sites β5", "setting": "[3]; KMS-18, LU-005 1.0 μM 1 h", "result": "85 ± 6", "unit": "% control"},
      {"measurement": "Inhibition of active sites β5", "setting": "[3]; KMS-18, LU-005 3.0 μM 1 h", "result": "94 ± 4", "unit": "% control"},
      {"measurement": "Inhibition of active sites β5", "setting": "[3]; KMS-18, LU-005 9.0 μM 1 h", "result": "97 ± 1", "unit": "% control"},
      {"measurement": "Inhibition of active sites β5", "setting": "[3]; MM1.R, LU-005 0.004 μM 1 h", "result": "17 ± 4", "unit": "% control"},
      {"measurement": "Inhibition of active sites β5", "setting": "[3]; NCI-H929, LU-005 0.0014 μM 1 h", "result": "22 ± 4", "unit": "% control"},
      {"measurement": "Inhibition of active sites β5", "setting": "[3]; NCI-H929, LU-005 0.004 μM 1 h", "result": "22 ± 11", "unit": "% control"},
      {"measurement": "Inhibition of active sites β5", "setting": "[3]; RPMI-8226, LU-005 0.037 μM 1 h", "result": "45 ± 26", "unit": "% control"},
      {"measurement": "Inhibition of active sites β5", "setting": "[3]; RPMI-8226, LU-005 0.33 μM 1 h", "result": "62 ± 32", "unit": "% control"},
      {"measurement": "Inhibition of active sites β5", "setting": "[3]; RPMI-8226, LU-005 1.0 μM 1 h", "result": "82 ± 16", "unit": "% control"}
    ]}
  ]
}
